Experimental data published in patent US9150575B2, “Piperidinylpyrazolopyridine derivative” (Daiichi Sankyo Company, Limited, priority 2012, dated 2015).

What follows are compounds tested against T1, LCAT (Homo sapiens, UniProt P04180) (assay: LCAT Activity Measurement (In Vitro)). Conditions: EC50 of LCAT activation; HDL3 fraction from plasma of a healthy person as enzyme source and acceptor; [14C]cholesterol; 37° C., approximately 16 hours.
T1 construct: The obtained fraction was dialyzed against phosphate-buffered saline (pH 7.4) and used as an enzyme source and an acceptor for LCAT; from tissue; host or cells: HDL3 fraction (1.125<specific gravity<1.210 g/mL) of plasma from a healthy person
T1 sequence (P04180 25-440): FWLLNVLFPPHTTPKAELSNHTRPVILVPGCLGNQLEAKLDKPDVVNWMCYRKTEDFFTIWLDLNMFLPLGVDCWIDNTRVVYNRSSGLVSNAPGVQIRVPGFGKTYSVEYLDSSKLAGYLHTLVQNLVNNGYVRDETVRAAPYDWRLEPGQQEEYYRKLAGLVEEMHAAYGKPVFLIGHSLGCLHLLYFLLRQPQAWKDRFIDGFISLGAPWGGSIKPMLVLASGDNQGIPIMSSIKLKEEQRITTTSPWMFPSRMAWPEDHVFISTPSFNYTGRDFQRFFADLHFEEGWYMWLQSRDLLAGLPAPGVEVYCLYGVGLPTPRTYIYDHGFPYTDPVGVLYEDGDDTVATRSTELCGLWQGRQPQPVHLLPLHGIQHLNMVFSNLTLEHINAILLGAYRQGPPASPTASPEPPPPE
Format: biochemical
How it was run: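 Human plasma HDL3 (1 mg/mL, PBS pH 7.4) served as enzyme and acceptor with [14C]cholesterol, 0.5 mM DTNB, 12.5 mM mercaptoethanol and 0.6% BSA; compounds in DMSO, incubated ~16 h at 37 °C. Cholesterol oleate radioactivity quantified after extraction and TLC; EC50 of activation fitted relative to no-drug control.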

| EC50 [µM] | Compound |
| --- | --- |
| 0.19 | CN(C)C(=O)c1cc(N2CCC(c3n[nH]c4c3C(O)(C(F)(F)F)CC(=O)N4)CC2)ccc1C(F)(F)F (stereo not drawn) [Example 69, 5-{4-[4-Hydroxy-6-oxo-4-(trifluoromethyl)-4,5,6,7-tetrahydro-1H-pyrazolo[3,4-b]pyridin-3-yl]piperidin-1-yl}-N,N-dimethyl-2-(trifluoromethyl)benzamide] |
| 0.3 | O=C1CC(O)(C(F)(F)F)c2c(C3CCN(c4ccc(F)cc4)CC3)n[nH]c2N1 (stereo not drawn) [Example 70, 3-[1-(4-Fluorophenyl)piperidin-4-yl]-4-hydroxy-4-(trifluoromethyl)-1,4,5,7-tetrahydro-6H-pyrazolo[3,4-b]pyridin-6-one] |
| 0.52 | O=C1CC(O)(C(F)(F)F)c2c(C3CCN(c4nc(C5CC5)no4)CC3)n[nH]c2N1 (stereo not drawn) [Example 71, 3-[1-(3-Cyclopropyl-1,2,4-oxadiazol-5-yl)piperidin-4-yl]-4-hydroxy-4-(trifluoromethyl)-1,4,5,7-tetrahydro-6H-pyrazolo[3,4-b]pyridin-6-one] |
| 0.023 | CC(C)(C)c1ncc(N2CCC(c3n[nH]c4c3C(O)(C(F)(F)F)CC(=O)N4)CC2)cn1 (stereo not drawn) [Example 72, 3-[1-(2-tert-Butylpyrimidin-5-yl)piperidin-4-yl]-4-hydroxy-4-(trifluoromethyl)-1,4,5,7-tetrahydro-6H-pyrazolo[3,4-b]pyridin-6-one] |
| 0.083 | CCc1ccc(N2CCC(c3n[nH]c4c3C(O)(C(F)(F)F)CC(=O)N4)CC2)nc1 (stereo not drawn) [Example 73, 3-[1-(5-Ethylpyridin-2-yl)piperidin-4-yl]-4-hydroxy-4-(trifluoromethyl)-1,4,5,7-tetrahydro-6H-pyrazolo[3,4-b]pyridin-6-one] |
| 0.14 | O=C1CC(O)(C(F)(F)F)c2c(C3CCN(c4ccc(Br)cn4)CC3)n[nH]c2N1 (stereo not drawn) [Example 74, 3-[1-(5-Bromopyridin-2-yl)piperidin-4-yl]-4-hydroxy-4-(trifluoromethyl)-1,4,5,7-tetrahydro-6H-pyrazolo[3,4-b]pyridin-6-one] |
| 0.22 | CC(C)c1cc(N2CCC(c3n[nH]c4c3C(O)(C(F)(F)F)CC(=O)N4)CC2)nc(C(C)C)n1 (stereo not drawn) [Example 75, 3-{1-[2,6-di(Propan-2-yl)pyrimidin-4-yl]piperidin-4-yl}-4-hydroxy-4-(trifluoromethyl)-1,4,5,7-tetrahydro-6H-pyrazolo[3,4-b]pyridin-6-one] |
| 0.018 | O=C1CC(O)(C(F)(F)F)c2c(C3CCN(c4ccc(OC(F)(F)F)cn4)CC3)n[nH]c2N1 (stereo not drawn) [Example 76, 4-Hydroxy-3-{1-[5-(trifluoromethoxy)pyridin-2-yl]piperidin-4-yl}-4-(trifluoromethyl)-1,4,5,7-tetrahydro-6H-pyrazolo[3,4-b]pyridin-6-one] |
| 0.058 | COC(=O)c1nc(N2CCC(c3n[nH]c4c3C(O)(C(F)(F)F)CC(=O)N4)CC2)ccc1C(F)(F)F (stereo not drawn) [Example 77, Methyl 6-{4-[4-hydroxy-6-oxo-4-(trifluoromethyl)-4,5,6,7-tetrahydro-1H-pyrazolo[3,4-b]pyridin-3-yl]piperidin-1-yl}-3-(trifluoromethyl)pyridine-2-carboxylate] |
| 0.22 | N#Cc1cnc(N2CCC(c3n[nH]c4c3C(O)(C(F)(F)F)CC(=O)N4)CC2)cn1 (stereo not drawn) [Example 78, 5-{4-[4-Hydroxy-6-oxo-4-(trifluoromethyl)-4,5,6,7-tetrahydro-1H-pyrazolo[3,4-b]pyridin-3-yl]piperidin-1-yl}pyrazine-2-carbonitrile] |
| 0.3 | O=C1CC(O)(C(F)(F)F)c2c(C3CCN(c4ccnc(C(F)(F)F)n4)CC3)n[nH]c2N1 (stereo not drawn) [Example 79, 4-Hydroxy-4-(trifluoromethyl)-3-{1-[2-(trifluoromethyl)pyrimidin-4-yl]piperidin-4-yl}-1,4,5,7-tetrahydro-6H-pyrazolo[3,4-b]pyridin-6-one] |
| 0.38 | O=C1CC(O)(C(F)(F)F)c2c(C3CCN(c4nccc(C(F)(F)F)n4)CC3)n[nH]c2N1 (stereo not drawn) [Example 80, 4-Hydroxy-4-(trifluoromethyl)-3-{1-[4-(trifluoromethyl)pyrimidin-2-yl]piperidin-4-yl}-1,4,5,7-tetrahydro-6H-pyrazolo[3,4-b]pyridin-6-one] |
